System: K12877-001-R-J1-PDC complex spheroid viability
Assay: Anticancer human tumor K12877-001-R-J1-PDC patient-derived lung adenocarcinoma cell line growth inhibition [RAS]
Details: for viability, T/C: stronger effect = lower value; active = viability on the fitted dose curve at most 10% of control; inactive = the rest
How it was run: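 Tumour cells grown as complex spheroids with HUVEC endothelial cells and mesenchymal stem cells, treated with RAS pathway inhibitor combinations. Each agent spans half-log steps from near clinical Cmax, or 10 microM where Cmax is unknown.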
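Also: spheroids exposed to agents for one week before readout.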
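For viability, T/C in this document: tumour cells co-cultured with HUVEC and mesenchymal stem cells in spheroids.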

C[C@@H](NC(=O)c1ncnc(N)c1Cl)c1ncc(C(=O)Nc2cc(C(F)(F)F)c(Cl)cn2)s1 + CCn1c(-c2cc(N3CCN(C)CC3)cnc2C(C)OC)c2c3cc(ccc31)-c1csc(n1)CC(NC(=O)C1CC1C)C(=O)N1CCCC(N1)C(=O)OCC(C)(C)C2
> 10 µM: IC50 (curve of first compound, second compound 0.000949 µM) | IC50 (curve of first compound, second compound 0.003 µM) | IC50 (curve of first compound, second compound 0.00949 µM) | IC50 (curve of first compound, second compound 0.03 µM) | IC50 (curve of first compound, second compound 0.0949 µM) | IC50 (curve of first compound, second compound 0.3 µM)
inactive: viability, T/C (second compound 0.000949 µM, first compound 0.0316 µM) 85.3% | viability, T/C (second compound 0.000949 µM, first compound 0.1 µM) 85.3% | viability, T/C (second compound 0.000949 µM, first compound 0.316 µM) 81.8% | viability, T/C (second compound 0.000949 µM, first compound 1 µM) 84.3% | viability, T/C (second compound 0.000949 µM, first compound 3.16 µM) 89.9% | viability, T/C (second compound 0.000949 µM, first compound 10 µM) 75.3% | viability, T/C (second compound 0.003 µM, first compound 0.0316 µM) 72.5% | viability, T/C (second compound 0.003 µM, first compound 0.1 µM) 78.3% | viability, T/C (second compound 0.003 µM, first compound 0.316 µM) 70.8% | viability, T/C (second compound 0.003 µM, first compound 1 µM) 83.6% | viability, T/C (second compound 0.003 µM, first compound 3.16 µM) 77.2% | viability, T/C (second compound 0.003 µM, first compound 10 µM) 83.2% | viability, T/C (second compound 0.00949 µM, first compound 0.0316 µM) 66.4% | viability, T/C (second compound 0.00949 µM, first compound 0.1 µM) 62.7% | viability, T/C (second compound 0.00949 µM, first compound 0.316 µM) 67.8% | viability, T/C (second compound 0.00949 µM, first compound 1 µM) 69.5% | viability, T/C (second compound 0.00949 µM, first compound 3.16 µM) 70.1% | viability, T/C (second compound 0.00949 µM, first compound 10 µM) 68.8% | viability, T/C (second compound 0.03 µM, first compound 0.0316 µM) 62.2% | viability, T/C (second compound 0.03 µM, first compound 0.1 µM) 58.3% | viability, T/C (second compound 0.03 µM, first compound 0.316 µM) 60% | viability, T/C (second compound 0.03 µM, first compound 1 µM) 68.3% | viability, T/C (second compound 0.03 µM, first compound 3.16 µM) 66.3% | viability, T/C (second compound 0.03 µM, first compound 10 µM) 112% | viability, T/C (second compound 0.0949 µM, first compound 0.0316 µM) 101% | viability, T/C (second compound 0.0949 µM, first compound 0.1 µM) 89.7% | viability, T/C (second compound 0.0949 µM, first compound 0.316 µM) 97.8% | viability, T/C (second compound 0.0949 µM, first compound 1 µM) 106% | viability, T/C (second compound 0.0949 µM, first compound 3.16 µM) 129% | viability, T/C (second compound 0.0949 µM, first compound 10 µM) 121% | viability, T/C (second compound 0.3 µM, first compound 0.0316 µM) 100% | viability, T/C (second compound 0.3 µM, first compound 0.1 µM) 100% | viability, T/C (second compound 0.3 µM, first compound 0.316 µM) 103% | viability, T/C (second compound 0.3 µM, first compound 1 µM) 111% | viability, T/C (second compound 0.3 µM, first compound 3.16 µM) 97.8% | viability, T/C (second compound 0.3 µM, first compound 10 µM) 111%

CCn1c(-c2cccnc2C(C)OC)c2c3cc(ccc31)N1CCOC(CC(NC(=O)C(C(C)C)N(C)C(=O)C3(F)CCN(C(=O)C#CC(C)(C)N(C)C)CC3)C(=O)N3CCCC(N3)C(=O)OCC(C)(C)C2)C1 (centres undefined)
> 0.3 µM: IC50 (compound alone, run of 08/20/2024)
inactive: viability, T/C (compound 0.000949 µM) 86.3% [middle of 8 runs] | viability, T/C (compound 0.003 µM) 81.2% [middle of 8 runs] | viability, T/C (compound 0.00949 µM) 79.2% [middle of 8 runs] | viability, T/C (compound 0.03 µM) 79% [middle of 8 runs] | viability, T/C (compound 0.0949 µM) 72.1% [middle of 8 runs] | viability, T/C (compound 0.3 µM) 72.7% [middle of 8 runs]
